This note sets out measurements from EP2100894A1, “Pyridopyrimidines used as Plk1 (polo-like kinase) inhibitors” (4SC AG, priority 2008, dated 2009).

Each structure is given as a SMILES string.

T1 sequence (P53350 whole entry): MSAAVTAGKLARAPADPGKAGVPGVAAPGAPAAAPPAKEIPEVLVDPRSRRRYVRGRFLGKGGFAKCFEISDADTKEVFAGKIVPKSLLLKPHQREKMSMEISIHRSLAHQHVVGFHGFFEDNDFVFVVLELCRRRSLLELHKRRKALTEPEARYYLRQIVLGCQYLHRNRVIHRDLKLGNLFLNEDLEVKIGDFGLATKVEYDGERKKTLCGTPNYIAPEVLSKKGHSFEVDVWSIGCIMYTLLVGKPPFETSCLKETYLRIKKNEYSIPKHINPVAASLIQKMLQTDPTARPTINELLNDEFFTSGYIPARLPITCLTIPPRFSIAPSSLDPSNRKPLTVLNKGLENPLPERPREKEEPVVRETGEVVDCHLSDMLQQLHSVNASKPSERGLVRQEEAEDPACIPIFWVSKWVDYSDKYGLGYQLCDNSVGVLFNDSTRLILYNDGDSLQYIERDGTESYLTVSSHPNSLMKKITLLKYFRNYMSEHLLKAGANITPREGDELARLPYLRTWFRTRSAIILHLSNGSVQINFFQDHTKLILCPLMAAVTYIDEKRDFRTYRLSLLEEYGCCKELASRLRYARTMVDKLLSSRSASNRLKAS

The assay addresses T1, PIk1 (Homo sapiens, UniProt P53350).
T1 construct: His tag (histidine tag) (N); made in house; host or cells: SF9 insect cells
In words: PIk1 kinase activity inhibition assay (33P incorporation into alpha casein, flash plates). It is filed as biochemical. The note with it: recombinant N-terminally histidine-tagged PIk1, alpha casein as substrate, 100 nM Li-ATP, 80 minutes at 30°C. The protocol:
The inhibition of PIk1 kinase activity can be measured using recombinant PIk1 protein expressed as an N-terminally histidine-tagged protein in SF9 insect cells and alpha casein as substrate. The PIk1 assay is run in 96 well plates by incubating 50 to 100 ng per well recombinant PIk1, 500 ng per well alpha casein (Sigma, # C-6780) as substrate, 10 µl of compound of invention (test compounds were dissolved as 20 mM solutions in dimethylsulfoxide (DMSO) and subsequently diluted), and 100 nM Li-ATP (including ^33P-ATP) in 100 µl of reaction buffer ([…], pH 7.5; 3 mM MgCl2; 3 mM MnCl2; 3 µM Na-Orthovanadat; 1 mM DTT; 1 µg/ml PEG 8000) for 80 minutes at 30°C. The reactions are terminated by adding 100 µl stopping buffer (2% H3PO4 for 5 minutes) and are washed 3 times with washing solution (0,9% NaCl). Determining ^33P incorporated into the protein substrate alpha casein, the detection is based on the adhesion of the phosphorylated protein to the surface of scintillator-coated flash plates (Perkin Elmer, USA; # SMP-200). Phosphorylation of alpha casein is measured by counting the radioactivity bound to the plate for 60 sec. using a plate reader (Perkin Elmer, USA; Wallac Microbeta). By this method, the IC50 value of the PIk1 inhibition is determined as described above. […]
Take `C/C=C/c1c(OC(C)C2CC2)c(=O)n(C)c2cnc(Nc3ccc(C(=O)NC4CCN(C)CC4)cc3OC)nc12` (centres unmarked) [Example 45, 4-({7-(1-cyclopropylethoxy)-5-methyl-6-oxo-8-[(1E)-prop-1-en-1-yl]-5,6-dihydropyrido[3,2-d]pyrimidin-2-yl}amino)-3-methoxy-N-(1-methylpiperidin-4-yl)benzamide]: the IC50 was less than 100 nM. As to `C#Cc1c(OC)c(=O)n(C)c2cnc(Nc3ccc(C(=O)NC4CCN(C)CC4)cc3OC)nc12` [Example 46, 4-[(8-ethynyl-7-methoxy-5-methyl-6-oxo-5,6-dihydropyrido[3,2-d]pyri-midin-2-yl)amino]-3-methoxy-N-(1-methylpiperidin-4-yl)benzamide], the IC50 was less than 100 nM. Next, `COc1cc(C(=O)NCCC2CCCN2C)ccc1Nc1ncc2c(n1)c(-c1ccsc1)c(OCC1CC1)c(=O)n2C` (centres unmarked) [Example 47, 4-{[7-(cyclopropylmethoxy)-5-methyl-6-oxo-8-(3-thienyl)-5,6-dihydropyrido[3,2-d]pyrimidin-2-yl]amino}-3-methoxy-N-[2-(1-methylpyrrolidin-2-yl)ethyl]benzamide]: less than 10 nM; `COc1cc(C(=O)NCC2CCN(C)CC2)ccc1Nc1ncc2c(n1)c(-c1ccsc1)c(OCC1CC1)c(=O)n2C` [Example 48, 4-{[7-(cyclopropylmethoxy)-5-methyl-6-oxo-8-(3-thienyl)-5,6-dihydro-pyrido[3,2-d]pyrimidin-2-yl]amino}-3-methoxy-N-[(1-methylpiperidin-4-yl)methyl] benzamide]: less than 10 nM; `COc1cc(C(=O)NC2CCN(C(C)C)CC2)ccc1Nc1ncc2c(n1)c(-c1ccsc1)c(OCC1CC1)c(=O)n2C` [Example 49, 4-{[7-(cyclopropylmethoxy)-5-methyl-6-oxo-8-(3-thienyl)-5,6-dihydropyrido[3,2-d]pyrimidin-2-yl]amino}-N-(1-isopropylpiperidin-4-yl)-3-methoxybenzamide]: less than 10 nM. Take `CCOc1c(-c2nccs2)c2nc(Nc3ccc(C(=O)NC4CCN(C)CC4)cc3OC)ncc2n(C)c1=O` [Example 50, 4-{[7-ethoxy-5-methyl-6-oxo-8-(1,3-thiazol-2-yl)-5,6-dihydropyrido[3,2-d]pyrimidin-2-yl]amino}-3-methoxy-N-(1-methylpiperidin-4-yl)benzamide]: the IC50 was less than 100 nM. The value for `COc1cc(C(=O)NC2CCN(C)CC2)ccc1Nc1ncc2c(n1)c(-c1ccccc1)c(OCC1CC1)c(=O)n2C` [Example 51, 4-{[7-(cyclopropylmethoxy)-5-methyl-6-oxo-8-phenyl-5,6-dihydro-pyrido[3,2-d]pyrimidin-2-yl]amino}-3-methoxy-N-(1-methylpiperidin-4-yl)benzamide] was less than 10 nM. Turning to `COc1cc(C(=O)NC2CCN(C)CC2)ccc1Nc1ncc2c(n1)c(-c1ccc(F)cc1)c(OCC1CC1)c(=O)n2C` [Example 52, 4-{[7-(cyclopropylmethoxy)-8-(4-fluorophenyl)-5-methyl-6-oxo-5,6-dihydropyrido[3,2-d]pyrimidin-2-yl]amino}-3-methoxy-N-(1-methylpiperidin-4-yl)benzamide], the IC50 is less than 10 nM. In the case of `COc1cc(C(=O)NC2CCN(C)CC2)ccc1Nc1ncc2c(n1)c(-c1cccs1)c(OCC1CC1)c(=O)n2C` [Example 53, 4-{[7-(cyclopropylmethoxy)-5-methyl-6-oxo-8-(2-thienyl)-5,6-dihydro-pyrido[3,2-d]pyrimidin-2-yl]amino}-3-methoxy-N-(1-methylpiperidin-4-yl)benzamide], the IC50 was less than 10 nM. Next, `COc1cc(C(=O)NC2CCN(C)CC2)ccc1Nc1ncc2c(n1)c(-c1cccc(F)c1)c(OCC1CC1)c(=O)n2C` [Example 54, 4-{[7-(cyclopropylmethoxy)-8-(3-fluorophenyl)-5-methyl-6-oxo-5,6-dihydropyrido[3,2-d]pyrimidin-2-yl]amino}-3-methoxy-N-(1-methylpiperidin-4-yl)benzamide]: less than 10 nM; `COc1cc(C(=O)NC2CCN(C)CC2)ccc1Nc1ncc2c(n1)c(-c1cc(C)cs1)c(OCC1CC1)c(=O)n2C` [Example 55, 4-{[7-(cyclopropylmethoxy)-5-methyl-8-(4-methyl-2-thienyl)-6-oxo-5,6-dihydropyrido[3,2-d]pyrimidin-2-yl]amino}-3-methoxy-N-(1-methylpiperidin-4-yl)benzamide]: less than 10 nM; `C/C=C/c1c(OC2CC2)c(=O)n(C)c2cnc(Nc3ccc(C(=O)NC4CCN(C)CC4)cc3OC)nc12` [Example 56, 4-({7-(cyclopropyloxy)-5-methyl-6-oxo-8-[(1E)-prop-1-en-1-yl]-5,6-dihydropyrido[3,2-d]pyrimidin-2-yl}amino)-3-methoxy-N-(1-methylpiperidin-4-yl)benzamide]: less than 10 nM. Next, `COc1cc(C(=O)NC2CCN(C)CC2)ccc1Nc1ncc2c(n1)c(C1=CCCC1)c(OCC1CC1)c(=O)n2C` [Example 57, 4-{[8-cyclopent-1-en-1-yl-7-(cyclopropylmethoxy)-5-methyl-6-oxo-5,6-dihydropyrido[3,2-d]pyrimidin-2-yl]amino}-3-methoxy-N-(1-methylpiperidin-4-yl)benzamide]: less than 10 nM; `COc1cc(C(=O)NC2CCN(C)CC2)ccc1Nc1ncc2c(n1)c(-c1ccsc1)c(OC1CC1)c(=O)n2C` [Example 58, 4-{[7-(cyclopropyloxy)-5-methyl-6-oxo-8-(3-thienyl)-5,6-dihydropyri-do[3,2-d]pyrimidin-2-yl]amino}-3-methoxy-N-(1-methylpiperidin-4-yl)benzamide]: less than 10 nM.

In the case of `COc1cc(C(=O)NC2CCN(C)CC2)ccc1Nc1ncc2c(n1)c(-c1ccccc1F)c(OCC1CC1)c(=O)n2C` [Example 59, 4-{[7-(cyclopropylmethoxy)-8-(2-fluorophenyl)-5-methyl-6-oxo-5,6-dihydropyrido[3,2-d]pyrimidin-2-yl]amino}-3-methoxy-N-(1-methylpiperidin-4-yl)benzamide], the IC50 is less than 10 nM. Next, `COc1cc(C(=O)NC2CCN(C)CC2)ccc1Nc1ncc2c(n1)c(-c1csc(C)c1)c(OCC1CC1)c(=O)n2C` [Example 60, 4-{[7-(cyclopropylmethoxy)-5-methyl-8-(5-methyl-3-thienyl)-6-oxo-5,6-dihydropyrido[3,2-d]pyrimidin-2-yl]amino}-3-methoxy-N-(1-methylpiperidin-4-yl)benzamide]: less than 10 nM; `COc1cc(C(=O)NC2CCN(C)CC2)ccc1Nc1ncc2c(n1)c(-c1cccc(C)c1)c(OCC1CC1)c(=O)n2C` [Example 61, 4-{[7-(cyclopropylmethoxy)-5-methyl-8-(3-methylphenyl)-6-oxo-5,6-dihydropyrido[3,2-d]pyrimidin-2-yl]amino}-3-methoxy-N-(1-methylpiperidin-4-yl)benzamide]: less than 10 nM; `COc1cc(C(=O)NC2CCN(C)CC2)ccc1Nc1ncc2c(n1)c(-c1ccc(C)cc1)c(OCC1CC1)c(=O)n2C` [Example 62, 4-{[7-(cyclopropylmethoxy)-5-methyl-8-(4-methylphenyl)-6-oxo-5,6-dihydropyrido[3,2-d]pyrimidin-2-yl]amino}-3-methoxy-N-(1-methylpiperidin-4-yl)benzamide]: less than 10 nM. Take `COc1cc(C(=O)NC2CCN(C)CC2)ccc1Nc1ncc2c(n1)c(-c1cscn1)c(OCC1CC1)c(=O)n2C` [Example 63, 4-{[7-(cyclopropylmethoxy)-5-methyl-6-oxo-8-(1,3-thiazol-4-yl)-5,6-dihydropyrido[3,2-d]pyrimidin-2-yl]amino}-3-methoxy-N-(1-methylpiperidin-4-yl)benzamide]: the IC50 was less than 10 nM.

Consider `C/C=C/c1c(OCC2CC2)c(=O)n(C)c2cnc(Nc3ccc(C(=O)NC4CCN(C)CC4)cc3C)nc12` [Example 64, 4-({7-(cyclopropylmethoxy)-5-methyl-6-oxo-8-[(1E)-prop-1-en-1-yl]-5,6-dihydropyrido[3,2-d]pyrimidin-2-yl}amino)-3-methyl-N-(1-methylpiperidin-4-yl)benzamide], for which the IC50 is less than 10 nM.

On to `C/C=C/c1c(OCC2CC2)c(=O)n(C)c2cnc(Nc3ccc(C(=O)NC4CCN(C)CC4)cc3CC)nc12` [Example 65, 4-({7-(cyclopropylmethoxy)-5-methyl-6-oxo-8-[(1E)-prop-1-en-1-yl]-5,6-dihydropyrido[3,2-d]pyrimidin-2-yl}amino)-3-ethyl-N-(1-methylpiperidin-4-yl)benzamide], for which the half-maximal inhibitory concentration (IC50) is less than 10 nM. Take `Cc1cc(C(=O)NC2CCN(C)CC2)ccc1Nc1ncc2c(n1)c(-c1ccsc1)c(OCC1CC1)c(=O)n2C` [Example 66, 4-{[7-(cyclopropylmethoxy)-5-methyl-6-oxo-8-(3-thienyl)-5,6-dihydropyrido[3,2-d]pyrimidin-2-yl]amino}-3-methyl-N-(1-methylpiperidin-4-yl)benzamide]: the IC50 was less than 10 nM. Take `C/C=C/c1c(OCC2CC2)c(=O)n(C)c2cnc(Nc3ccc(C(=O)NC4CCN(C)CC4)cc3Cl)nc12` [Example 67, 3-chloro-4-({7-(cyclopropylmethoxy)-5-methyl-6-oxo-8-[(1E)-prop-1-en-1-yl]-5,6-dihydropyrido[3,2-d]pyrimidin-2-yl}amino)-N-(1-methylpiperidin-4-yl)benzamide]: the IC50 was less than 10 nM.
